Source: US12195482B1 (Arcus Biosciences, Inc., priority 2022, dated 2025)

Biological target: T1, Axl (Homo sapiens, UniProt P30530)
T1 sequence (P30530 26-894): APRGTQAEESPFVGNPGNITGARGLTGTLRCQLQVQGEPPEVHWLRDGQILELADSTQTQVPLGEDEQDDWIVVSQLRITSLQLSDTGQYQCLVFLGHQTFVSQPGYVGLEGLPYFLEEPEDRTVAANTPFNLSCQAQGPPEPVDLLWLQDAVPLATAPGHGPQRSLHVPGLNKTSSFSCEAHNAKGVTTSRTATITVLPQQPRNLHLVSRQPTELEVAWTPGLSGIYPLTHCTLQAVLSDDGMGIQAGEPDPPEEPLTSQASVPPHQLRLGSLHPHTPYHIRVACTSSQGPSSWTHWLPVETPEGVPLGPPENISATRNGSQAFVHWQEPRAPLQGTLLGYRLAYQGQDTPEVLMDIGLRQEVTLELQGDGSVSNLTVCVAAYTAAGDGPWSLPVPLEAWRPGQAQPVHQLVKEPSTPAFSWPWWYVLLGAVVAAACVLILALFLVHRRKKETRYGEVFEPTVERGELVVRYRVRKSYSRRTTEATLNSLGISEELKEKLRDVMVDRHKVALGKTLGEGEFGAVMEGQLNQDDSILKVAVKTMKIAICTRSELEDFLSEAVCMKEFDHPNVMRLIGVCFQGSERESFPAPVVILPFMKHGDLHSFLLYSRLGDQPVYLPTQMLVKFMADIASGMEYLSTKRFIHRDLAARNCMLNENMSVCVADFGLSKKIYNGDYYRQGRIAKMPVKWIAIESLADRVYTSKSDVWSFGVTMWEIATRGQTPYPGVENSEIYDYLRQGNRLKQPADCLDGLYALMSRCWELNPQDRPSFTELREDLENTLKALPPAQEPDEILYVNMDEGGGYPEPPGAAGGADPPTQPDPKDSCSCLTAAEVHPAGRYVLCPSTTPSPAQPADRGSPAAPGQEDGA
Experiment: Axl NanoBRET intracellular kinase assay (intracellular binding, K-5 tracer displacement)
Design: host or cells: HEK-293
Conditions: HEK-293 cells transfected with Axl-NanoLuc, 0.35 μM K-5 NanoBRET tracer; read-out: Cell Binding AXL
Protocol: Measuring Intracellular Binding of Axl Inhibitors
Axl NanoBRET™ intracellular kinase assay (Promega, N2540) was performed according to manufacturer's recommendation. In brief, HEK-293 cells are transiently transfected with Ax1-NanoLuc fusion vector (Promega, NV1071), utilizing Fugene HD transfection reagent (Promega, E2311) a day before experiment following manufacturer's recommendation.
The day of the assay, the cells were collected and resuspended in Opti-MEM media (ThermoFisher, 31985070) at 2e5 cells/mL concentration. Testing compounds were serial diluted and dispensed into a white 384 well polystyrene plate at 200 nL in 100% DMSO. 40 μL of resuspended cells is then added per well for a final condition of 8K cells/well with 0.5% DMSO. After one-hour compound pre-incubation at 37° C. and 5% CO2, cells were further incubated with 0.35 μM K-5 NanoBRET tracer for two-hours at 37° C. and 5% CO2. […] of 3× substrate plus Inhibitor solution was prepared according to kits manual and added to the cells followed by a 30 second pulse centrifugation spin. The plate was then immediately read utilizing an Envision (Perkin Elmer) plate reader. The BRET signal is measured by taking the ratio of the emissions reading at 610 nm and 450 nm. Compound binding is based on the decrease BRET signal caused by the displacement of the K-5 tracer. […] ICso value of compounds was determined by 4-parameter non-linear regression fitting of percent activity in GraphPad Prism software.

Clc1cccnc1-c1ccc(-c2c[nH]c3ncc(-c4ccc5c(c4)CC[C@@H](N4C6COCC4C6)CC5)cc23)cc1 [Example 43, 6-[(7S)-2-{3-[4-(3-Chloropyridin-2-yl)phenyl]-1H-pyrrolo[2,3-b]pyridin-5-yl}-6,7,8,9-tetrahydro-5H-benzo[7]annulen-7-yl]-3-oxa-6-azabicyclo[3.1.1]heptane]
IC50: 0.1 to 1 µM

C[C@@H]1CCCN1[C@@]1(C)CCc2ccc(-c3cnc4[nH]nc(-c5ccc(-c6ncco6)cc5)c4c3)cc2CC1 [Example 90, 2-(4-{5-[(7S)-7-Methyl-7-[(2R)-2-methylpyrrolidin-1-yl]-6,7,8,9-tetrahydro-5H-benzo[7]annulen-2-yl]-2H-pyrazolo[3,4-b]pyridin-3-yl}phenyl)-1,3-oxazole]
IC50: < 0.1 µM

Cc1nccnc1-c1ccc(-c2c[nH]c3ncc(-c4ccc5c(c4)CC[C@@H](N4C6COCC4C6)CC5)cc23)cc1 [Example 48, 6-[(7S)-2-{3-[4-(3-Methylpyrazin-2-yl)phenyl]-1H-pyrrolo[2,3-b]pyridin-5-yl}-6,7,8,9-tetrahydro-5H-benzo[7]annulen-7-yl]-3-oxa-6-azabicyclo[3.1.1]heptane]
IC50: < 0.1 µM

Cc1cncnc1-c1ccc(-c2c[nH]c3ncc(-c4ccc5c(c4)CC[C@@H](N4C6COCC4C6)CC5)cc23)cc1 [Example 47, 6-[(7S)-2-{3-[4-(5-Methylpyrimidin-4-yl)phenyl]-1H-pyrrolo[2,3-b]pyridin-5-yl}-6,7,8,9-tetrahydro-5H-benzo[7]annulen-7-yl]-3-oxa-6-azabicyclo[3.1.1]heptane]
IC50: < 0.1 µM

Cc1cccnc1-c1ccc(-c2c[nH]c3ncc(-c4ccc5c(c4)CC[C@@H](N4C6COCC4C6)CC5)cc23)cc1 [Example 1, 6-[(7S)-2-{3-[4-(3-Methylpyridin-2-yl)phenyl]-1H-pyrrolo[2,3-b]pyridin-5-yl}-6,7,8,9-tetrahydro-5H-benzo[7]annulen-7-yl]-3-oxa-6-azabicyclo[3.1.1]heptane]
IC50: < 0.1 µM

c1cc(-n2cc(-c3c[nH]c4ncc(-c5ccc6c(c5)CC[C@@H](N5C7COCC5C7)CC6)cc34)cn2)ccn1 [Example 45, 6-[(7S)-2-{3-[1-(Pyridin-4-yl)-1H-pyrazol-4-yl]-1H-pyrrolo[2,3-b]pyridin-5-yl}-6,7,8,9-tetrahydro-5H-benzo[7]annulen-7-yl]-3-oxa-6-azabicyclo[3.1.1]heptane]
IC50: < 0.1 µM

Cc1cccnc1-c1ccc(-c2n[nH]c3ncc(-c4ccc5c(c4)CC[C@@H](N4C6COCC4C6)CC5)cc23)cc1 [Example 2, 6-[(7S)-2-{3-[4-(3-Methylpyridin-2-yl)phenyl]-2H-pyrazolo[3,4-b]pyridin-5-yl}-6,7,8,9-tetrahydro-5H-benzo[7]annulen-7-yl]-3-oxa-6-azabicyclo[3.1.1]heptane]
IC50: < 0.1 µM

Cc1ccnnc1-c1ccc(-c2c[nH]c3ncc(-c4ccc5c(c4)CC[C@@H](N4C6COCC4C6)CC5)cc23)cc1 [Example 49, 6-[(7S)-2-{3-[4-(4-Methylpyridazin-3-yl)phenyl]-1H-pyrrolo[2,3-b]pyridin-5-yl}-6,7,8,9-tetrahydro-5H-benzo[7]annulen-7-yl]-3-oxa-6-azabicyclo[3.1.1]heptane]
IC50: < 0.1 µM

Fc1cc(-c2c[nH]c3ncc(-c4ccc5c(c4)CC[C@@H](N4C6COCC4C6)CC5)cc23)ccc1-c1ccccn1 [Example 40, 6-[(7S)-2-{3-[3-Fluoro-4-(pyridin-2-yl)phenyl]-1H-pyrrolo[2,3-b]pyridin-5-yl}-6,7,8,9-tetrahydro-5H-benzo[7]annulen-7-yl]-3-oxa-6-azabicyclo[3.1.1]heptane]
IC50: 0.1 to 1 µM

Clc1cc(-c2c[nH]c3ncc(-c4ccc5c(c4)CC[C@@H](N4C6COCC4C6)CC5)cc23)ccc1-c1ccccn1 [Example 44, 6-[(7S)-2-{3-[3-Chloro-4-(pyridin-2-yl)phenyl]-1H-pyrrolo[2,3-b]pyridin-5-yl}-6,7,8,9-tetrahydro-5H-benzo[7]annulen-7-yl]-3-oxa-6-azabicyclo[3.1.1]heptane]
IC50: < 0.1 µM

CS(=O)(=O)c1ccccc1-c1ccc(-c2c[nH]c3ncc(-c4ccc5c(c4)CC[C@@H](N4C6COCC4C6)CC5)cc23)cc1 [Example 93, 6-[(7S)-2-(3-{2′-Methanesulfonyl-[1,1′-biphenyl]-4-yl}-1H-pyrrolo[2,3-b]pyridin-5-yl)-6,7,8,9-tetrahydro-5H-benzo[7]annulen-7-yl]-3-oxa-6-azabicyclo[3.1.1]heptane]
IC50: < 0.1 µM

Fc1cccnc1-c1ccc(-c2c[nH]c3ncc(-c4ccc5c(c4)CC[C@@H](N4C6COCC4C6)CC5)cc23)cc1 [Example 42, 6-[(7S)-2-{3-[4-(3-Fluoropyridin-2-yl)phenyl]-1H-pyrrolo[2,3-b]pyridin-5-yl}-6,7,8,9-tetrahydro-5H-benzo[7]annulen-7-yl]-3-oxa-6-azabicyclo[3.1.1]heptane]
IC50: 0.1 to 1 µM

C[C@@H]1CCCN1[C@@]1(C)CCc2ccc(-c3cnc4[nH]nc(-c5ccc(-c6nccs6)cc5)c4c3)cc2CC1 [Example 91, 2-(4-{5-[(7S)-7-Methyl-7-[(2R)-2-methylpyrrolidin-1-yl]-6,7,8,9-tetrahydro-5H-benzo[7]annulen-2-yl]-2H-pyrazolo[3,4-b]pyridin-3-yl}phenyl)-1,3-thiazole]
IC50: < 0.1 µM

CN(C)C(=O)c1ccccc1-c1ccc(-c2c[nH]c3ncc(-c4ccc5c(c4)CC[C@@H](N4C6COCC4C6)CC5)cc23)cc1 [Example 92, N,N-Dimethyl-4′-{5-[(7S)-7-{3-oxa-6-azabicyclo[3.1.1]heptan-6-yl}-6,7,8,9-tetrahydro-5H-benzo[7]annulen-2-yl]-1H-pyrrolo[2,3-b]pyridin-3-yl}-[1,1′-biphenyl]-2-carboxamide]
IC50: < 0.1 µM

c1cncc(-c2ccc(-c3n[nH]c4ncc(-c5ccc6c(c5)CC[C@@H](N5C7COCC5C7)CC6)cc34)cc2)c1 [Example 157, 6-[(7S)-2-{3-[4-(Pyridin-3-yl)phenyl]-2H-pyrazolo[3,4-b]pyridin-5-yl}-6,7,8,9-tetrahydro-5H-benzo[7]annulen-7-yl]-3-oxa-6-azabicyclo[3.1.1]heptane]
IC50: 0.1 to 1 µM

COc1cc(-c2c[nH]c3ncc(-c4ccc5c(c4)CC[C@@H](N4C6COCC4C6)CC5)cc23)ccc1-c1ccccn1 [Example 161, 6-[(7S)-2-{3-[3-Methoxy-4-(pyridin-2-yl)phenyl]-1H-pyrrolo[2,3-b]pyridin-5-yl}-6,7,8,9-tetrahydro-5H-benzo[7]annulen-7-yl]-3-oxa-6-azabicyclo[3.1.1]heptane]
IC50: 0.1 to 1 µM

c1cc(-c2ccc(-c3c[nH]c4ncc(-c5ccc6c(c5)CC[C@@H](N5C7COCC5C7)CC6)cc34)cc2)ccn1 [Example 41, 6-[(7S)-2-{3-[4-(Pyridin-4-yl)phenyl]-1H-pyrrolo[2,3-b]pyridin-5-yl}-6,7,8,9-tetrahydro-5H-benzo[7]annulen-7-yl]-3-oxa-6-azabicyclo[3.1.1]heptane]
IC50: 0.1 to 1 µM

N#Cc1cccnc1-c1ccc(-c2c[nH]c3ncc(-c4ccc5c(c4)CC[C@@H](N4C6COCC4C6)CC5)cc23)cc1 [Example 46, 2-(4-{5-[(7S)-7-{3-Oxa-6-azabicyclo[3.1.1]heptan-6-yl}-6,7,8,9-tetrahydro-5H-benzo[7]annulen-2-yl]-1H-pyrrolo[2,3-b]pyridin-3-yl}phenyl)pyridine-3-carbonitrile]
IC50: < 0.1 µM

COc1cccc(-c2ccc(-c3n[nH]c4ncc(-c5ccc6c(c5)CC[C@@H](N5C7COCC5C7)CC6)cc34)cc2)n1 [Example 162, 6-[(7S)-2-{3-[4-(6-Methoxypyridin-2-yl)phenyl]-2H-pyrazolo[3,4-b]pyridin-5-yl}-6,7,8,9-tetrahydro-5H-benzo[7]annulen-7-yl]-3-oxa-6-azabicyclo[3.1.1]heptane]
IC50: > 1 µM

COc1cc(-c2n[nH]c3ncc(-c4ccc5c(c4)CC[C@@H](N4C6COCC4C6)CC5)cc23)ccc1-c1ccccn1 [Example 160, 6-[(7S)-2-{3-[3-Methoxy-4-(pyridin-2-yl)phenyl]-2H-pyrazolo[3,4-b]pyridin-5-yl}-6,7,8,9-tetrahydro-5H-benzo[7]annulen-7-yl]-3-oxa-6-azabicyclo[3.1.1]heptane]
IC50: 0.1 to 1 µM
